Tests used:
[1] = system: normal NK cells expanded with K562-aAPC; assay: percent inhibition of viability; higher = more inhibition; conditions: 72 h, IL-2 2.5 ng/mL
Protocol: (§1)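 Drug sensitivity and resistance testing on K562-aAPC-expanded normal NK cells: 5 concentrations (10-fold steps over a 10,000-fold range), 72 h at 37 °C, viability by CellTiter-Glo normalised to DMSO and benzethonium chloride controls; DSS from the fitted curve.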

[2] = system: DERL-7 (IL-2 2.5 ng/mL); assay: as above; conditions: 72 h
[3] = system: IMC-1 (IL-2 20 ng/mL); assay: as above; conditions: 72 h
[4] = system: KAI3 (IL-2 2.5 ng/mL); assay: as above; conditions: 72 h
[5] = system: KHYG-1 (IL-2 2.5 ng/mL); assay: as above; conditions: 72 h
[6] = system: NK-92 (IL-2 2.5 ng/mL); assay: as above; conditions: 72 h
[7] = system: NK-YS (IL-2 2.5 ng/mL); assay: as above; conditions: 72 h
[8] = system: NKL (IL-2 2.5 ng/mL); assay: as above; conditions: 72 h
[9] = system: SNK-6 (IL-2 2.5 ng/mL); assay: as above; conditions: 72 h
[10] = system: YT (IL-2 2.5 ng/mL); assay: as above; conditions: 72 h
[11] = system: normal primary NK cells, pool 1 (3 donors) (IL-2 2.5 ng/mL); assay: as above; conditions: 72 h
[12] = system: normal primary NK cells, pool 1 (3 donors), resting (IL-2 0 ng/mL); assay: as above; conditions: 72 h
[13] = system: normal primary NK cells, pool 2 (3 donors) (IL-2 2.5 ng/mL); assay: as above; conditions: 72 h
[14] = system: normal primary NK cells, pool 3 (3 donors) (IL-2 2.5 ng/mL); assay: as above; conditions: 72 h
[15] = system: normal NK cells expanded with K562-aAPC; assay: drug sensitivity score (DSS) (DSS units); higher = more sensitive; extreme values may be limits of the assay; conditions: 72 h; IL-2 2.5 ng/mL
Protocol: as §1

[16] = system: DERL-7 (IL-2 2.5 ng/mL); assay: as above; conditions: 72 h
[17] = system: IMC-1 (IL-2 20 ng/mL); assay: as above; conditions: 72 h
[18] = system: KAI3 (IL-2 2.5 ng/mL); assay: as above; conditions: 72 h
[19] = system: KHYG-1 (IL-2 2.5 ng/mL); assay: as above; conditions: 72 h
[20] = system: NK-92 (IL-2 2.5 ng/mL); assay: as above; conditions: 72 h
[21] = system: NK-YS (IL-2 2.5 ng/mL); assay: as above; conditions: 72 h
[22] = system: NKL (IL-2 2.5 ng/mL); assay: as above; conditions: 72 h
[23] = system: SNK-6 (IL-2 2.5 ng/mL); assay: as above; conditions: 72 h
[24] = system: YT (IL-2 2.5 ng/mL); assay: as above; conditions: 72 h
[25] = system: normal primary NK cells, pool 1 (3 donors) (IL-2 2.5 ng/mL); assay: as above; conditions: 72 h
[26] = system: normal primary NK cells, pool 1 (3 donors), resting (IL-2 0 ng/mL); assay: as above; conditions: 72 h
[27] = system: normal primary NK cells, pool 2 (3 donors) (IL-2 2.5 ng/mL); assay: as above; conditions: 72 h
[28] = system: normal primary NK cells, pool 3 (3 donors) (IL-2 2.5 ng/mL); assay: as above; conditions: 72 h

CCN1CCN(c2ccc(Nc3cc(N(C)C(=O)Nc4c(Cl)c(OC)cc(OC)c4Cl)ncn3)cc2)CC1 [NVP-BGJ398] (max concentration tested 1000 nM)
percent inhibition of viability [%]
Conditions | 0.1 nM | 1 nM | 10 nM | 100 nM | 1000 nM
[1] | -0.93 | -6.78 | -4.9 | 4.74 | 2.68
[2] | 2.66 | 5.38 | 2.13 | 4.05 | 8.48
[3] | -7.18 | 3.41 | -1.12 | 4.31 | -1.42
[4] | -2.53 | -7.26 | -1.75 | 2.95 | 5.14
[5] | -6.77 | -2.35 | -1.84 | 3.9 | 22.1
[6] | -11.4 | 1.56 | 9.63 | 19.4 | 17.8
[7] | -4.6 | -4.02 | -4.62 | -2.71 | 6.5
[8] | -0.94 | -7.47 | 0.95 | 4.24 | 15
[9] | -1.53 | -0.29 | -14.4 | -13.1 | -6.84
[10] | -2.36 | 0.47 | -1.37 | 5.31 | 11.7
[11] | 4.34 | 9.33 | 11.6 | 4.78 | 12.1
[12] | -6.47 | 4.3 | 1.93 | 4.77 | 19.9
[13] | -8.08 | 5.48 | 12.3 | 1.57 | 12.6
[14] | -6.2 | 7.43 | 9.02 | 0.22 | 7.33

Conditions | drug sensitivity score
[15] | 0
[16] | 0
[17] | 0
[18] | 0
[19] | 1.3
[20] | 3.27
[21] | 0
[22] | 0.59
[23] | 0
[24] | 0.2
[25] | 0
[26] | 1.18
[27] | 0.05
[28] | 0

CCOc1cc2ncc(C#N)c(Nc3ccc(OCc4ccccn4)c(Cl)c3)c2cc1NC(=O)/C=C/CN(C)C [Neratinib] (max concentration tested 1000 nM)
percent inhibition of viability [%]
Conditions | 0.1 nM | 1 nM | 10 nM | 100 nM | 1000 nM
[1] | -2.53 | 0.83 | -1.65 | 8.19 | 50
[2] | -7.68 | 3.12 | 6.29 | 8.45 | 68.9
[3] | -2.69 | -1.05 | 1.8 | 4.28 | 1.07
[4] | -4.25 | -5.47 | -6.36 | 0.65 | 48.1
[5] | 4.6 | -0.87 | 25.1 | 2.37 | 22
[6] | 3.19 | -13.2 | 7.23 | 7.67 | 55.4
[7] | -2.05 | -4.96 | -1.85 | -5.03 | 15.2
[8] | -1.48 | 12.9 | 8.45 | 12.5 | 40.4
[9] | 11 | 16.1 | 38.2 | 6.35 | 35.7
[10] | 1.33 | 4.12 | 5.46 | 1.01 | 10.2
[11] | -6.45 | -7.28 | -6.63 | -9.14 | 36.2
[12] | -2.47 | -22.5 | -7.51 | -6.96 | 70.1
[13] | -8.13 | -2.28 | 2.22 | -1.98 | 33.3
[14] | -13.9 | -5.37 | -1.66 | -10.9 | 18.9

Conditions | drug sensitivity score
[15] | 4.02
[16] | 5.21
[17] | 0
[18] | 2.59
[19] | 1.72
[20] | 4.28
[21] | 0.13
[22] | 3.24
[23] | 0
[24] | 0
[25] | 1.29
[26] | 3.36
[27] | 1.38
[28] | 0.26

COC(=O)c1ccc2c(c1)NC(=O)/C2=C(\Nc1ccc(N(C)C(=O)CN2CCN(C)CC2)cc1)c1ccccc1 [Nintedanib] (max concentration tested 10000 nM)
percent inhibition of viability [%]
Conditions | 1 nM | 10 nM | 100 nM | 1000 nM | 10000 nM
[1] | -0.08 | -2.82 | 8.47 | 31 | 100
[2] | -8.99 | 0.01 | 2.16 | 38.1 | 100
[3] | -8.95 | -2.57 | -11.3 | -22.3 | 100
[4] | -8.46 | -2.04 | 1.37 | 16.4 | 93.4
[5] | -5.39 | -3.23 | -3.31 | 20.3 | 99.6
[6] | -4.93 | 2.39 | -1.05 | 45.4 | 99.4
[7] | -4.51 | -2.23 | -3.24 | 20.9 | 99.6
[8] | -7.94 | -17.2 | -2.91 | 56.5 | 100
[9] | 16.6 | 7.57 | -2.75 | -31.8 | 83.2
[10] | -2.16 | -1.03 | -3.64 | 7.19 | 99.3
[11] | -7.78 | -11 | -5.14 | 38.2 | 98.9
[12] | -8.23 | -15.9 | -15.4 | 47 | 94.9
[13] | -15.7 | -1.56 | -14 | 23.9 | 99.2
[14] | -18.1 | -18.2 | -5.82 | 5.55 | 99.6

Conditions | drug sensitivity score
[15] | 9.6
[16] | 10.7
[17] | 4.45
[18] | 7.87
[19] | 8.76
[20] | 11.3
[21] | 8.84
[22] | 12.3
[23] | 3.37
[24] | 6.61
[25] | 10.6
[26] | 11.1
[27] | 9.18
[28] | 6.33

Cc1sc2c(c1C)C(c1ccc(Cl)cc1)=N[C@@H](CC(=O)Nc1ccc(O)cc1)c1nnc(C)n1-2 [OTX015] (max concentration tested 10000 nM)
percent inhibition of viability [%]
Conditions | 1 nM | 10 nM | 100 nM | 1000 nM | 10000 nM
[1] | -2.53 | -1.01 | 4.29 | 35.6 | 59.9
[2] | 1.92 | 24 | 62 | 95.8 | 100
[3] | -7.07 | -8.73 | 1.26 | 73.2 | 97.4
[4] | 3.12 | -12.4 | 6.28 | 43.9 | 56.6
[5] | -1.24 | -0.67 | 38.7 | 91 | 106
[6] | -10.2 | -31 | -32.9 | 22.6 | 36.9
[7] | -0.13 | 1.91 | 28.4 | 62.4 | 81.9
[8] | 6.07 | 1.36 | 45.3 | 69.8 | 73.4
[9] | 15.4 | 3.9 | 54.7 | 66.5 | 49.5
[10] | -1.39 | -5.05 | 12.7 | 50.1 | 56.8
[11] | -1.64 | 12.5 | 32.6 | 59.5 | 80.1
[12] | -3.45 | 11.8 | 18.6 | 34.9 | 49.6
[13] | -6.93 | 6.42 | 15.3 | 54.1 | 76.5
[14] | -1.79 | 8.04 | 9.85 | 28.3 | 57.8

Conditions | drug sensitivity score
[15] | 7.54
[16] | 26.7
[17] | 13.8
[18] | 8.88
[19] | 21.6
[20] | 4.42
[21] | 15.2
[22] | 18.9
[23] | 19.3
[24] | 10.8
[25] | 15.7
[26] | 8.82
[27] | 12.1
[28] | 6.65

COC(=O)C[C@](O)(CCCC(C)(C)O)C(=O)O[C@@H]1C(OC)=C[C@]23CCCN2CCc2cc4c(cc2[C@H]13)OCO4 [Omacetaxine] (max concentration tested 10000 nM)
percent inhibition of viability [%]
Conditions | 1 nM | 10 nM | 100 nM | 1000 nM | 10000 nM
[1] | 3.7 | 16 | 93.1 | 101 | 101
[2] | 5.07 | 60.5 | 100 | 101 | 101
[3] | -8.96 | -3.07 | 99.7 | 101 | 101
[4] | 29.6 | 46.7 | 101 | 105 | 106
[5] | -7.86 | -9.89 | 102 | 106 | 107
[6] | 1.68 | 7.27 | 100 | 106 | 108
[7] | 1.36 | 1.43 | 100 | 105 | 108
[8] | 3.97 | 2.74 | 99.8 | 107 | 108
[9] | 0.3 | 72.3 | 95.2 | 95.4 | 99.9
[10] | -7.92 | 19.8 | 98.2 | 107 | 108
[11] | 1.78 | 69 | 96.7 | 96.5 | 99
[12] | 39.6 | 89.8 | 90.3 | 89.8 | 91.4
[13] | 4.96 | 73.8 | 93.2 | 93.8 | 95.3
[14] | 9.72 | 46.5 | 96.3 | 97.1 | 99.5

Conditions | drug sensitivity score
[15] | 31.6
[16] | 37.8
[17] | 30.1
[18] | 37.1
[19] | 29.9
[20] | 31.6
[21] | 30.6
[22] | 30.8
[23] | 38.8
[24] | 33.7
[25] | 38.4
[26] | 43.6
[27] | 38.4
[28] | 35.4

Reference: the supplement of paper PMC5908809
